The values below come from patent publication US12528802B2, “Heterocyclic compound” (Takeda Pharmaceutical Company Limited, priority 2019, dated 2026).

This test addresses T1, glucosylceramide synthase (Homo sapiens, UniProt Q16739).
T1 construct: made in house; host or cells: Expi293F cells (transient expression, pcDNA3.3-TOPO vector); microsome fraction used as enzyme source
T1 sequence (Q16739 1-394): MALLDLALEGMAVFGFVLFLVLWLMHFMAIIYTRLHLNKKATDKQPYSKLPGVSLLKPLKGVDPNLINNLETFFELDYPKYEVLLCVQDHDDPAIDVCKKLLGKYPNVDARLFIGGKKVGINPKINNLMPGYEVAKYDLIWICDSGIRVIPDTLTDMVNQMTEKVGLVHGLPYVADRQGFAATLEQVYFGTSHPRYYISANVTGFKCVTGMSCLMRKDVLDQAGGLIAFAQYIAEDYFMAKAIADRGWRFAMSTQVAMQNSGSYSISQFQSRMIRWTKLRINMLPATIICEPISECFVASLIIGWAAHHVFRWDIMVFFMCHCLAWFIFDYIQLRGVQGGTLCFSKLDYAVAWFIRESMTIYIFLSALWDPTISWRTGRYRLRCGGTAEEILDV
In words: Glucosylceramide synthase (GCS) enzyme assay, microsome fraction, C8 glucosylceramide quantified by Rapidfire MS/MS. The test is classed as biochemical. To be noted: test compound 10 μM; 1.7 μM UDP-glucose, 3 μM C8 ceramide; room temperature 60 min; read-out: GCS enzyme inhibitory rate at 10 μM (%) (% of control). Put shortly: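 Test compound, 10 μM final, was run against human GCS from transfected Expi293F microsome fractions, using substrate solution of 6 μM C8 ceramide (in DOPC liposomes) plus 3.4 μM UDP-glucose, pH 7.5 Tris buffer, 60 min, room temperature. Product C8 glucosylceramide measured by Rapidfire MS/MS against an internal standard, % inhibition referenced to no-enzyme and DMSO wells.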
On to `CC(C)(O)COc1cnc(N2Cc3c(ccnc3-c3ccccc3OCC(F)(F)F)C2=O)cn1` [Example 298, 2-[5-(2-hydroxy-2-methylpropoxy)pyrazin-2-yl]-4-[2-(2,2,2-trifluoroethoxy)phenyl]-2,3-dihydro-1H-pyrrolo[3,4-c]pyridin-1-one], for which the inhibition at 10 µM was determined as 98%.
To `CC(C)(O)COc1cnc(N2Cc3c(ccnc3-c3ccc(F)cc3OCC(F)(F)F)C2=O)cn1` [Example 299, 4-[4-fluoro-2-(2,2,2-trifluoroethoxy)phenyl]-2-[5-(2-hydroxy-2-methylpropoxy)pyrazin-2-yl]-2,3-dihydro-1H-pyrrolo [3,4-c]pyridin-1-one] belongs 97%.
The value for `N#CC1(c2ccc(N3Cc4c(ccnc4-c4ccc(F)cc4OCC(F)F)C3=O)cc2)CC1` [Example 302, 1-(4-{4-[2-(2,2-difluoroethoxy)-4-fluorophenyl]-1-oxo-1,3-dihydro-2H-pyrrolo[3,4-c]pyridin-2-yl}phenyl) cyclopropane-1-carbonitrile] was 92%.
`CC(C)(C#N)c1ccc(N2Cc3c(ccnc3-c3ccc(F)cc3OCC(F)F)C2=O)cc1` [Example 303, 2-(4-{4-[2-(2,2-difluoroethoxy)-4-fluorophenyl]-1-oxo-1,3-dihydro-2H-pyrrolo[3,4-c]pyridin-2-yl}phenyl)-2-methylpropanenitrile]: the inhibition at 10 µM turned out to be 100%.
The value for `N#CC1(c2ccc(N3Cc4c(ccnc4-c4ccccc4OCC(F)F)C3=O)cc2)CC1` [Example 304, 1-(4-{4-[2-(2,2-difluoroethoxy)phenyl]-1-oxo-1,3-dihydro-2H-pyrrolo[3,4-c]pyridin-2-yl}phenyl) cyclopropane-1-carbonitrile] was 99%; that for `CC(C)(O)Cc1ccc(N2Cc3c(ccnc3-c3ccc(F)cc3OCC(F)(F)F)C2=O)cc1` [Example 305, 4-[4-fluoro-2-(2,2,2-trifluoroethoxy)phenyl]-2-[4-(2-hydroxy-2-methylpropyl)phenyl]-2,3-dihydro-1H-pyrrolo[3,4-c]pyridin-1-one] was 99%; that for `CC(C)(O)COc1ccc(N2Cc3c(ccnc3-c3ccccc3OCC(F)F)C2=O)nc1` [Example 306, 4-[2-(2,2-difluoroethoxy)phenyl]-2-[5-(2-hydroxy-2-methylpropoxy)pyridin-2-yl]-2,3-dihydro-1H-pyrrolo [3,4-c]pyridin-1-one] was 99%.
To `CC(C)(O)Cc1ccc(N2Cc3c(ccnc3-c3ccncc3OCC(F)(F)F)C2=O)cc1` [Example 307, 2-[4-(2-hydroxy-2-methylpropyl)phenyl]-4-[3-(2,2,2-trifluoroethoxy)pyridin-4-yl]-2,3-dihydro-1H-pyrrolo [3,4-c]pyridin-1-one] belongs 91%; to `Cn1nc(N2Cc3c(ccnc3-c3ccc(F)cc3OCC(F)(F)F)C2=O)cc1OC(F)F` [Example 309, 2-[5-(difluoromethoxy)-1-methyl-1H-pyrazol-3-yl]-4-[4-fluoro-2-(2,2,2-trifluoroethoxy)phenyl]-2,3-dihydro-1H-pyrrolo[3,4-c]pyridin-1-one], 60%; to `O=C1c2ccc(=O)n(-c3ccc(F)cc3OCC(F)(F)F)c2CN1c1ccc(OC(F)F)cn1` [Example 310, 6-[5-(difluoromethoxy)pyridin-2-yl]-1-[4-fluoro-2-(2,2,2-trifluoroethoxy)phenyl]-6,7-dihydro-1H-pyrrolo[3,4-b]pyridine-2,5-dione], 99%.
For the compound `O=C1c2ccnc(-c3ccccc3OCC(F)(F)F)c2CN1c1ccc(C2(O)CC(F)(F)C2)nc1` [Example 316, 2-[6-(3,3-difluoro-1-hydroxycyclobutyl)pyridin-3-yl]-4-[2-(2,2,2-trifluoroethoxy)phenyl]-2,3-dihydro-1H-pyrrolo[3,4-c]pyridin-1-one], the inhibition at 10 µM is 99%.
To `Cn1nc(N2Cc3c(ccnc3-c3ccc(F)cc3OCC(F)(F)F)C2=O)cc1C#N` [Example 318, 3-{4-[4-fluoro-2-(2,2,2-trifluoroethoxy)phenyl]-1-oxo-1,3-dihydro-2H-pyrrolo [3,4-c]pyridin-2-yl}-1-methyl-1H-pyrazole-5-carbonitrile] belongs 52%; to `CC(=O)c1ccc(N2Cc3c(ccnc3-c3c(F)cccc3OCC(F)(F)F)C2=O)cc1` [Example 319, 2-(4-acetylphenyl)-4-[2-fluoro-6-(2,2,2-trifluoroethoxy)phenyl]-2,3-dihydro-1H-pyrrolo[3,4-c]pyridin-1-one], 97%; to `CC(C)(O)c1ccc(N2Cc3c(ccnc3-c3c(F)cc(F)cc3OCC(F)(F)F)C2=O)cc1` [Example 320, 4-[2,4-difluoro-6-(2,2,2-trifluoroethoxy)phenyl]-2-[4-(2-hydroxypropan-2-yl)phenyl]-2,3-dihydro-1H-pyrrolo[3,4-c]pyridin-1-one], 99%.
The value for `Cn1cc2c(c(-c3ccccc3OCC(F)(F)F)c1=O)CN(c1ccc(C(C)(C)O)cc1)C2=O` [Example 321, 2-[4-(2-hydroxypropan-2-yl)phenyl]-5-methyl-7-[2-(2,2,2-trifluoroethoxy)phenyl]-1H-pyrrolo[3,4-c]pyridine-3,6(2H,5H)-dione] was 100%.
To `CC(C)(O)c1ccc(N2Cc3c(ccnc3-c3cc(F)c(F)cc3OCC(F)(F)F)C2=O)cc1` [Example 322, 4-[4,5-difluoro-2-(2,2,2-trifluoroethoxy)phenyl]-2-[4-(2-hydroxypropan-2-yl)phenyl]-2,3-dihydro-1H-pyrrolo [3,4-c]pyridin-1-one] belongs 95%; to `CC(C)(O)c1ccc(N2Cc3c(ccnc3-c3cc(F)ccc3OCC(F)(F)F)C2=O)cc1` [Example 323, 4-[5-fluoro-2-(2,2,2-trifluoroethoxy)phenyl]-2-[4-(2-hydroxypropan-2-yl)phenyl]-2,3-dihydro-1H-pyrrolo[3,4-c]pyridin-1-one], 99%.
Turning to `Cc1cc2c(c(-c3ccccc3OCC(F)(F)F)n1)CN(c1ccc(C(C)(C)O)nc1)C2=O` [Example 326, 2-[6-(2-hydroxypropan-2-yl)pyridin-3-yl]-6-methyl-4-[2-(2,2,2-trifluoroethoxy)phenyl]-2,3-dihydro-1H-pyrrolo[3,4-c]pyridin-1-one], the inhibition at 10 µM amounted to 99%.
The value for `CC(C)(O)c1ccc(N2Cc3c(cc(C(F)F)nc3-c3ccccc3OCC(F)(F)F)C2=O)cc1` [Example 327, 6-(difluoromethyl)-2-[4-(2-hydroxypropan-2-yl)phenyl]-4-[2-(2,2,2-trifluoroethoxy)phenyl]-2,3-dihydro-1H-pyrrolo[3,4-c]pyridin-1-one] was 100%; that for `CC(C)(O)c1ccc(N2Cc3c(cc(C(F)F)nc3-c3ccccc3OCC(F)(F)F)C2=O)cn1` [Example 328, 6-(difluoromethyl)-2-[6-(2-hydroxypropan-2-yl)pyridin-3-yl]-4-[2-(2,2,2-trifluoroethoxy)phenyl]-2,3-dihydro-1H-pyrrolo[3,4-c]pyridin-1-one] was 100%.
To `COCc1cc2c(c(-c3ccccc3OCC(F)(F)F)n1)CN(c1ccc(C(C)(C)O)cc1)C2=O` [Example 330, 2-[4-(2-hydroxypropan-2-yl)phenyl]-6-(methoxymethyl)-4-[2-(2,2,2-trifluoroethoxy)phenyl]-2,3-dihydro-1H-pyrrolo[3,4-c]pyridin-1-one] belongs 100%.
